Laboratory results published in US9861606B2, “Therapeutic for treating inflammatory lung disorders” (University College Cardiff Consultants Limited, priority 2012, dated 2018).
Entries after “also recorded” stand apart in the source; their conditions may differ.

Columns and labels:
[1] = system: Dunkin-Hartley guinea pigs; assay: Inflammatory cell infiltration in BALF of LPS-treated guinea pig model of COPD; type: in vivo; settings: nebulised 3 micromolar, 30 min before LPS
Experimental: FIG. 15. The calcilytic NPS89636 reduces inflammatory cell infiltration detected in the bronchioalveolar lavage fluid (BALF) from guinea pigs with LPS-induced COPD. Male Dunkin-Hartley guinea pigs (500-550 g) were exposed to 30 micrograms/ml of nebulized lipopolysaccharide (LPS) in saline for 1 hour on alternate days for nine exposures. Animals received nebulised 3 micromolar NPS89636 (or 0.3% DMSO vehicle) for 9 days starting after exposure 5 for 30 min, 30 min before LPS exposure every other day. Animals were killed 24 hours after the ninth exposure (1.5 mL of Euthatal IP) and BALF was collected and cells were counted the same day as described in FIG. 14. Data are presented as mean±S.E.M. Significant differences between vehicle and calcilytic are indicated, p<0.05, n=6. […] For the total cell counts 100 microliters of the concentrated BALF from OVA-sensitised mice or 100 microliters of the diluted BALF from guinea pigs were applied to the Cytospin 3 Shandon cell smearing system (using glass slides from Thermo Scientific (BS7011/2; 0.8-1 mm, 76×26 mm) and filter paper from Thermo Scientific (5991022; Shandon filter cards) at 1000 rt/min for 7 minutes. The slides then were immersed into 1.5% […] stain in methanol for 6 min, then briefly washed in water twice. The slides were allowed to dry overnight, and the cells were counted using 100× oil immersion objective.

human CaSR = target: T1, human CaSR (Homo sapiens, UniProt P41180); assay: Intracellular Ca2+ (fura-2, F/F0) in HEK293 cells stably expressing human CaSR; type: cell-based; settings: 100 nM calcilytic, HEK-CaSR
T1 construct: expressed in transfected cells; control HEK-0 with empty vector
T1 sequence (P41180 20-1078): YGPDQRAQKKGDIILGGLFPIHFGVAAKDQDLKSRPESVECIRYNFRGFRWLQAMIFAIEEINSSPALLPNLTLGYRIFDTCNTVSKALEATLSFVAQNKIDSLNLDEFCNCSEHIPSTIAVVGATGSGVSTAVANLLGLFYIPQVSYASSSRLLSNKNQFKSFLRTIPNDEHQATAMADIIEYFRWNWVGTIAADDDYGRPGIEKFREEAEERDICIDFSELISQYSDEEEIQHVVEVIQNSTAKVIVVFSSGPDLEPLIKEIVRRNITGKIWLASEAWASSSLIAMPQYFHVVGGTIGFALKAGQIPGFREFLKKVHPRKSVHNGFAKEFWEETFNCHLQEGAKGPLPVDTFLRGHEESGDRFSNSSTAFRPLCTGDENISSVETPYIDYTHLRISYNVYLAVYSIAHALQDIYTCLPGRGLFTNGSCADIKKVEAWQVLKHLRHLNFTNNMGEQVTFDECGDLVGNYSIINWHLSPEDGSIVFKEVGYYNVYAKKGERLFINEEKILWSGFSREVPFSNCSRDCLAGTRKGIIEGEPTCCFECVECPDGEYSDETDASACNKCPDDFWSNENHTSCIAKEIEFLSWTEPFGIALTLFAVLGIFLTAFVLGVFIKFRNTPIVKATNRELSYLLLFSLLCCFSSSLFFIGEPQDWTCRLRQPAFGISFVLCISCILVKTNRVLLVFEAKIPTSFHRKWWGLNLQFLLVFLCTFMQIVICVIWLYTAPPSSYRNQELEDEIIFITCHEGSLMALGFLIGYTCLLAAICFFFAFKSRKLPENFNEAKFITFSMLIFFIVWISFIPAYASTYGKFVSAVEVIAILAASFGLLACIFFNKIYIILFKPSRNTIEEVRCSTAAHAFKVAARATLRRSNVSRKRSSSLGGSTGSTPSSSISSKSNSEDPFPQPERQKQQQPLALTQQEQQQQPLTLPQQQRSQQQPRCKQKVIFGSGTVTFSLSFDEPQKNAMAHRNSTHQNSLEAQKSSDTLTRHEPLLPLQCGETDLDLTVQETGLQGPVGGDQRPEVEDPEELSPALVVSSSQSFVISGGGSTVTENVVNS
Experimental: The structurally unrelated calcilytic NPS2143 also prevents spermine-induced CaSR activation (D). […] Note that ECP serum concentrations in asthmatic subjects are believed to be 30 μg/ml. n=121-487 cells, 3-9 experiments. Data are mean±SEM. Where differences are significant, they are shown above the bars. FIG. 6. Ca^2+o activates the CaSR, an effect which can be prevented by the calcilytic NPS89636. HEK293 cells stably expressing the human CaSR (HEK-CaSR) or transfected with empty vector (HEK-0) were loaded with 4 μM fura-2 AM and exposed to 5 mM Ca^2+o in the absence or presence of the calcilytic, NPS89636 (100 nM). Data are from >3 experiments and 121-386 cells. Significant differences are shown above the bars. […] The ability of a structurally unrelated calcilytic, NPS2143 (1-10 μM), was also tested on spermine-induced Ca^2+i mobilisation in HEK-CaSR. Ca^2+i release was measured as peak/baseline fluorescence (F/F0). Note that ECP serum concentrations in asthmatic subjects increase with disease severity and are believed to reach 30 μg/ml.

Effect of calcilytic on Ca2+i increase evoked by 5 mM Ca2+o (human CaSR): blocked
Compound: CCc1ccc(CC(C)(C)NCC(O)COc2cc(-c3ccc(C(=O)O)cc3)ccc2C#N)c(F)c1.Cl (stereo in doubt) [NPS89636, (S)-4′-cyano-3′-[3-[2-(4-ethyl-2-fluorophenyl)-1,1-dimethylethylamino]-2-hydroxy-propoxy]-biphenyl-4-carboxylic acid hydrochloride]
Effect on inflammatory cell infiltration (BALF), LPS-treated guinea pig [1]: a reduction in the inflammatory cell infiltration, especially of lymphocytes and neutrophils | Effect of calcilytic on polycation-evoked Ca2+i release (F/F0) (human CaSR; 300 nM poly-L-arginine, 1 mM spermine or 10 μg/ml ECP, hydrochloride): completely eliminated; also recorded: significantly reduced
